Data as given in PubChem BioAssay (NCI).
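Test compounds were applied to cells in 96-well plates for 48 hours at 5 doses. GI50: concentration for 50% inhibition of growth. TGI: total growth inhibition.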 Where a SMILES comes first, the peptide text is derived from it. [ ]: non-standard residue; d: D form. The star is where a group is joined. ξ: configuration not given here. ξNMe2Val = CC(C)C(C(=O)*)N(C)C; NMeV = CN[CH](C(=O)O)C(C)C; NHBn = c1ccc(CN*)cc1

Assays:
Assay in all cases: growth of human tumour cells (NCI), 48 h
[1] = test system: UACC-257 melanoma
[2] = test system: SW-620 colon
[3] = test system: LOX IMVI melanoma
[4] = test system: OVCAR-3 ovarian
[5] = test system: HS 578T breast
[6] = test system: HCT-15 colon
[7] = test system: DU-145 prostate
[8] = test system: OVCAR-4 ovarian
[9] = test system: NCI-H460 lung
[10] = test system: UACC-62 melanoma
[11] = test system: OVCAR-8 ovarian
[12] = test system: MDA-MB-231 breast
[13] = test system: A549 NSCLC
[14] = test system: NCI-H522 lung
[15] = test system: EKVX NSCLC
[16] = test system: T-47D breast
[17] = test system: 786-0 renal
[18] = test system: ACHN renal
[19] = test system: SN12C renal
[20] = test system: HCT-116 colon
[21] = test system: SF-295 CNS
[22] = test system: PC-3 prostate
[23] = test system: HOP-62 NSCLC
[24] = test system: SK-MEL-5 melanoma
[25] = test system: SK-MEL-2 melanoma
[26] = test system: M14 melanoma
[27] = test system: SF-268 CNS
[28] = test system: HT29 colon
[29] = test system: IGROV1 ovarian
[30] = test system: MDA-N
[31] = test system: COLO 205 colon
[32] = test system: SK-OV-3 ovarian
[33] = test system: SNB-75 CNS
[34] = test system: NCI/ADR-RES ovarian
[35] = test system: HOP-92 NSCLC
[36] = test system: MALME-3M melanoma
[37] = test system: KM12 colon
[38] = test system: CCRF-CEM leukemia
[39] = test system: NCI-H23 lung
[40] = test system: CAKI-1 renal
[41] = test system: U251 CNS
[42] = test system: UO-31 renal
[43] = test system: RPMI-8226 leukemia
[44] = test system: RXF 393 renal
[45] = test system: SNB-19 CNS
[46] = test system: OVCAR-5 ovarian
[47] = test system: HL-60(TB) leukemia
[48] = test system: BT-549 breast
[49] = test system: TK-10 renal
[50] = test system: MCF7 breast
[51] = test system: MOLT-4 leukemia
[52] = test system: SF-539 CNS
[53] = test system: NCI-H226 lung
[54] = test system: MDA-MB-435
[55] = test system: HCC-2998 colon
[56] = test system: A498 renal
[57] = test system: SK-MEL-28 melanoma
[58] = test system: K-562 leukemia

## CC1(C)OC2C(COC(c3ccccc3)(c3ccccc3)c3ccccc3)OC(c3c[nH]c4c(N)ncnc34)C2O1 (centres undefined)
[1]
  TGI: 17.5 µM
[2]
  TGI: 14.1 µM
[3]
  TGI: 3.26 µM
[4]
  TGI: 9.26 µM
[5]
  TGI: 28.4 µM
[6]
  TGI: 15.2 µM
[7]
  TGI: 18.9 µM
[8]
  TGI: 23.3 µM
[9]
  TGI: 10.5 µM
[10]
  TGI: 4.21 µM
[11]
  TGI: 21.7 µM
[12]
  TGI: 27.4 µM
[13]
  TGI: 13.9 µM
[14]
  TGI: 17.8 µM
[15]
  TGI: 21.8 µM
[16]
  TGI: 17.2 µM
[17]
  TGI: 4.37 µM
[18]
  TGI: 13.3 µM
[19]
  TGI: 15.4 µM
[20]
  TGI: 15.9 µM
[21]
  TGI: 7.29 µM
[22]
  TGI: 10.5 µM
[23]
  TGI: 16.1 µM
[24]
  TGI: 3.05 µM
[25]
  TGI: 29.3 µM
[26]
  TGI: 9.44 µM
[27]
  TGI: 21.4 µM
[28]
  TGI: 7.15 µM
[29]
  TGI: 17 µM
[30]
  TGI: 11 µM
[31]
  TGI: 23.9 µM
[32]
  TGI: 17.5 µM
[33]
  TGI: 19.6 µM
[34]
  TGI: 29 µM
[35]
  TGI: 18.5 µM
[36]
  TGI: 16.8 µM

## CC(C)C(NC(=O)C(C(C)C)N(C)C)C(=O)N(C)C(C(=O)N1CCCC1C(=O)N1CCCC1C(=O)NCc1ccccc1)C(C)C (centres undefined) (ξNMe2Val-V[NMeV]PP-NHBn; configuration not given here)
[2]
  TGI: > 100 µM
[37]
  TGI: < 0.0001 µM
[3]
  TGI: 0.000253 µM
[7]
  TGI: 0.0117 µM
[8]
  TGI: > 100 µM
[9]
  TGI: 0.0227 µM
[10]
  TGI: 0.0105 µM
[38]
  TGI: 0.00144 µM
[39]
  TGI: > 100 µM
[12]
  TGI: 0.000242 µM
[13]
  TGI: > 100 µM
[14]
  TGI: 0.418 µM
[40]
  TGI: > 100 µM
[41]
  TGI: 3.11 µM
[15]
  GI50: < 0.0001 µM
  TGI: > 100 µM
[42]
  TGI: > 100 µM
[43]
  TGI: > 100 µM
[17]
  TGI: > 100 µM
[44]
  TGI: > 100 µM
[18]
  TGI: > 100 µM
[45]
  TGI: > 100 µM
[23]
  TGI: > 100 µM
[46]
  TGI: 0.206 µM
[24]
  TGI: 0.000265 µM
[27]
  TGI: > 100 µM
[47]
  TGI: < 0.0001 µM
[29]
  TGI: > 100 µM
[30]
  TGI: < 0.0001 µM
[31]
  TGI: 0.00016 µM
[48]
  TGI: 0.0788 µM
[32]
  TGI: > 100 µM
[33]
  TGI: 53.8 µM
[34]
  GI50: 0.264 µM
  TGI: 7.39 µM
[36]
  TGI: > 100 µM

## Cc1ccc(C)n1-c1ccccc1C1C=Cn2c(=O)nnc3c(OC(C)C)c(OC(C)C)c(O)c1c32 (centres undefined)
[1]
  TGI: > 100 µM
[2]
  TGI: 42.3 µM
[37]
  TGI: > 100 µM
[3]
  TGI: > 100 µM
[4]
  TGI: > 100 µM
[5]
  TGI: > 100 µM
[6]
  TGI: 60.4 µM
[7]
  TGI: > 100 µM
[49]
  TGI: > 100 µM
[8]
  TGI: > 100 µM
[9]
  TGI: > 100 µM
[10]
  TGI: > 100 µM
[38]
  TGI: > 100 µM
[11]
  TGI: > 100 µM
[39]
  TGI: > 100 µM
[12]
  TGI: > 100 µM
[50]
  TGI: > 100 µM
[13]
  TGI: > 100 µM
[14]
  TGI: 49.6 µM
[40]
  TGI: > 100 µM
[41]
  TGI: > 100 µM
[15]
  TGI: > 100 µM
[42]
  TGI: > 100 µM
[51]
  TGI: 56.5 µM
[43]
  TGI: 42.4 µM
[52]
  TGI: > 100 µM
[17]
  TGI: 65.7 µM
[44]
  TGI: 77.3 µM
[18]
  TGI: > 100 µM
[19]
  TGI: > 100 µM
[53]
  TGI: 53.6 µM
[20]
  TGI: 70.1 µM
[45]
  TGI: > 100 µM
[21]
  TGI: > 100 µM
[54]
  TGI: 58.5 µM
[55]
  TGI: > 100 µM
[56]
  TGI: > 100 µM
[22]
  TGI: > 100 µM
[23]
  TGI: > 100 µM
[46]
  TGI: > 100 µM
[24]
  TGI: > 100 µM
[25]
  TGI: > 100 µM
[26]
  TGI: > 100 µM
[27]
  TGI: > 100 µM
[28]
  TGI: 43.6 µM
[47]
  TGI: 59.6 µM
[29]
  TGI: > 100 µM
[30]
  TGI: > 100 µM
[57]
  TGI: 38.1 µM
[31]
  TGI: 27.7 µM
[48]
  TGI: > 100 µM
[32]
  TGI: > 100 µM
[33]
  TGI: > 100 µM
[34]
  TGI: > 100 µM
[58]
  TGI: > 100 µM
[35]
  TGI: > 100 µM
[36]
  TGI: 76.5 µM

## COc1cccc(/C=N/n2c(Cc3ccccc3)n[nH]c2=O)c1
[1]
  TGI: > 100 µM
[2]
  TGI: > 100 µM
[37]
  TGI: > 100 µM
[3]
  TGI: > 100 µM
[4]
  TGI: > 100 µM
[5]
  TGI: 50 µM
[6]
  TGI: > 100 µM
[7]
  TGI: > 100 µM
[49]
  TGI: > 100 µM
[8]
  TGI: > 100 µM
[9]
  TGI: > 100 µM
[10]
  TGI: > 100 µM
[38]
  TGI: > 100 µM
[11]
  TGI: > 100 µM
[39]
  TGI: > 100 µM
[12]
  TGI: > 100 µM
[50]
  TGI: > 100 µM
[13]
  TGI: > 100 µM
[14]
  TGI: > 100 µM
[40]
  TGI: > 100 µM
[41]
  TGI: > 100 µM
[15]
  TGI: > 100 µM
[42]
  TGI: > 100 µM
[51]
  TGI: > 100 µM
[43]
  TGI: > 100 µM
[16]
  TGI: > 100 µM
[52]
  TGI: > 100 µM
[17]
  TGI: > 100 µM
[44]
  TGI: > 100 µM
[18]
  TGI: > 100 µM
[19]
  TGI: > 60.3 µM
[53]
  TGI: > 25.6 µM
[20]
  TGI: > 100 µM
[45]
  TGI: > 100 µM
[21]
  TGI: > 100 µM
[54]
  TGI: > 100 µM
[55]
  TGI: > 100 µM
[56]
  TGI: > 100 µM
[22]
  TGI: > 100 µM
[23]
  TGI: > 100 µM
[46]
  TGI: > 100 µM
[24]
  TGI: > 100 µM
[25]
  TGI: > 100 µM
[26]
  TGI: > 100 µM
[27]
  TGI: > 100 µM
[28]
  TGI: > 100 µM
[30]
  TGI: > 100 µM
[57]
  TGI: > 100 µM
[31]
  TGI: > 100 µM
[48]
  TGI: > 100 µM
[32]
  TGI: > 100 µM
[33]
  TGI: 61.2 µM
[34]
  TGI: > 100 µM
[58]
  TGI: > 100 µM
[36]
  TGI: > 100 µM
